# Source: PubChem BioAssay (NCI)
# “And” between values parts separate entries of the source, which are not always exact repeats. Equal values may be shown once.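 Following 48 hours of exposure in 96-well plates, responses at five concentrations were used to interpolate endpoints linearly. The concentration for 50% growth inhibition is given as GI50. TGI denotes the concentration required for complete inhibition of growth.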
# Experiments:
# Experiment in all cases: inhibition of tumour cell growth, NCI panel, 48 h
# TK-10 renal = system: TK-10 renal
# A549 NSCLC = system: A549 NSCLC
# LOX IMVI melanoma = system: LOX IMVI melanoma
# OVCAR-4 ovarian = system: OVCAR-4 ovarian
# SK-MEL-2 melanoma = system: SK-MEL-2 melanoma
# MDA-MB-231 breast = system: MDA-MB-231 breast
# A498 renal = system: A498 renal
# RXF 393 renal = system: RXF 393 renal
# UO-31 renal = system: UO-31 renal
# K-562 leukemia = system: K-562 leukemia
Compound,TGI (TK-10 renal),TGI (A549 NSCLC),TGI (LOX IMVI melanoma),TGI (OVCAR-4 ovarian) [µM],TGI (SK-MEL-2 melanoma),TGI (MDA-MB-231 breast),TGI (A498 renal),TGI (RXF 393 renal),TGI (UO-31 renal),TGI (K-562 leukemia),GI50 (TK-10 renal) [µM],GI50 (A549 NSCLC),GI50 (LOX IMVI melanoma),GI50 (OVCAR-4 ovarian) [µM],GI50 (SK-MEL-2 melanoma) [µM],GI50 (MDA-MB-231 breast),GI50 (A498 renal),GI50 (RXF 393 renal) [nM],GI50 (UO-31 renal),GI50 (K-562 leukemia)
O=C(CCN1CCCCC1)N1CCc2c([nH]c3ccccc23)C1c1cccnc1 (stereo unspecified),> 100 µM,> 100 µM,> 100 µM,> 100,36.9 µM,> 74.2 µM,> 100 µM,81.5 µM,71.1 µM,75.1 µM,,,,,,,,,,
COC(=O)c1oc2c(C(=O)/C=C/c3ccc(OC)cc3)c(OCCN(C)C)ccc2c1C,23 µM,23 µM,17 µM,16.8,28.8 µM,22.9 µM,22.6 µM,14.6 µM,18.2 µM,8.49 µM,9.79,5.08 µM,4.52 µM,5.06,12.4,8.33 µM,10.1 µM,3910,5.14 µM,2.24 µM
CN1CCN(Cc2ccc(NC(=O)c3cncc(C#Cc4cnc(N)c5cccnc45)c3)cc2C(F)(F)F)CC1,> 50 µM,> 50 µM,0.686 µM,> 50,0.332 µM,0.975 µM,0.723 µM,2.51 µM,2.78 µM,> 50 µM,1.33,1.35 µM,0.159 µM,0.149,0.12,0.137 µM,0.112 µM,255,1.1 µM,0.005 µM
CCOC(=O)C(C#N)C1=CC(=O)C(=O)c2ccc(O)cc21 (stereo unspecified),> 100 µM,> 100 µM,> 100 µM,> 100,> 100 µM,> 100 µM,> 100 µM,> 100 µM,> 100 µM,> 100 µM,,,,,,,,,,
O=C(O)C1[O][Sb][O]C(C(=O)O)C1O (stereo unspecified),> 100 µM,> 100 µM,> 100 µM,> 100,> 100 µM,> 100 µM,> 100 µM,> 100 µM,> 100 µM,> 100 µM,> 100,> 100 µM,> 100 µM,> 100,> 100,> 100 µM,> 100 µM,> 100000,> 100 µM,> 100 µM
Cc1cn(Cc2ccc(C34CC5CC(CC(C5)C3)C4)c(O)c2)c(=O)[nH]c1=O,32.2 µM,,23.3 µM,32.1,32.2 µM,31 µM,17.8 µM,7.2 µM,23.8 µM,11 µM,14.7,,11.3 µM,12.9,14.1,15.5 µM,4.33 µM,1820,11.6 µM,2.99 µM
O=C1c2ccccc2-c2c1c1ccccc1c(=O)n2CCCNCCn1c2c(c3ccccc3c1=O)C(=O)c1ccccc1-2,15.8 µM,26.3 µM,3.16 µM,24.9,96.9 µM,9.25 µM,25.3 µM,13.9 µM,17.3 µM,42.3 µM,3.8,13.5 µM,0.0855 µM,11.5,28.2,2 µM,12.7 µM,2290,,19.2 µM
CSc1nc2c(c(=O)n1C)CN(C1CCCCC1)C(=O)C(c1ccccc1)N2 (stereo unspecified),> 100 µM,> 100 µM,> 100 µM,> 100,> 100 µM,> 100 µM,37.6 µM,> 100 µM,> 100 µM,> 100 µM,31.4,38.4 µM,17.1 µM,35.2,26.2,27.4 µM,0.292 µM,49500,34.1 µM,4 µM
O=C1O/C(=C/c2ccccc2)C(c2ccccc2)=C1O,> 100 µM,> 100 µM,> 100 µM,> 100,31.6 µM,> 100 µM,85.6 µM,70.3 µM,88.1 µM,> 100 µM,,,,,,,,,,
CC1(C)CCCC(C)(C2CCC3(C)C2C(O)CC2C4(C)CCC(O)C(C)(C)C4CCC23C)O1 (stereo unspecified),> 100 µM,> 100 µM,> 100 µM,> 100,> 100 µM,> 100 µM,> 100 µM,30.9 µM,> 100 µM,> 100 µM,,,,,,,,,,
Nc1nc(/C=C\c2ccccc2)nc(N2CCN(c3ccccc3)CC2)n1,81.1 µM,> 100 µM,40.6 µM,> 100,91.7 µM,53.4 µM,87.9 µM,49.2 µM,> 100 µM,65.1 µM,28.4,31.5 µM,19 µM,37.2,32.5,19.2 µM,35.1 µM,21600,38.4 µM,20.5 µM
CCN(CC)CCCC(C)N/C(=C1\C(=O)NC(=O)\C1=C(/NC(C)CCCN(CC)CC)c1cccc(OC)c1)c1cccc(OC)c1 (stereo unspecified),,1.8 µM,1.49 µM,2.2,1.8 µM,1.47 µM,5.58 µM,1.58 µM,1.49 µM,3.86 µM,,0.819 µM,0.676 µM,0.742,0.947,0.574 µM,0.791 µM,720,0.733 µM,0.581 µM
CC(=O)N1N=C(c2ccc(Nc3nc(Nc4ccc(F)cc4)nc(Nc4ccc(F)cc4)n3)cc2)CC1c1ccc(N(C)C)cc1 (stereo unspecified),39.2 µM,26.8 µM,24.6 µM,> 100,16.5 µM,29.7 µM,26.8 µM,5.6 µM,35.8 µM,7.31 µM,7.02,4.58 µM,12.2 µM,3.77,3.61,6.54 µM,5.58 µM,1560,5.94 µM,2.69 µM
CCCCCCCCCC[C@H](O)[C@H](O)CC[C@@H](O)[C@H]1CC[C@@H]([C@H]2CC[C@H](CCCCCCC[C@@H](O)CC3=C[C@H](C)OC3=O)O2)O1,> 100 µM,> 100 µM,3.5 µM and 24.2 µM,78,,7.79 µM and 69.2 µM,87.1 µM,83 µM,4.18 µM and 32.3 µM,,36.3,20.7 µM,2.9 µM,,27,19.4 µM,17.7 µM,42500,16.6 µM,
O=C(NCC1CCCO1)c1ccc(NC2=C(Cl)C(=O)N(Cc3ccccc3)C2=O)cc1 (stereo unspecified),,50.5 µM,> 100 µM,44.6,34.7 µM,46.6 µM,41.9 µM,50.8 µM,8.24 µM,34.3 µM,,19.1 µM,24.5 µM,19.2,17.5,16.8 µM,22.2 µM,20600,2.67 µM,11.1 µM
CN1CCN(C(=O)COc2ccc(/C=C3\CC4C5CC=C6CC(Cl)CCC6(C)C5CCC4(C)C3=O)cc2)CC1 (stereo unspecified),> 100 µM,> 100 µM,,> 100,> 100 µM,> 100 µM,> 100 µM,> 100 µM,> 100 µM,> 100 µM,27.4,> 100 µM,,> 100,> 100,> 100 µM,> 100 µM,14300,> 100 µM,2.61 µM
CC(=O)c1cc(C(=O)c2ccc3c(c2)Sc2ccccc2N3)n2ccccc12,,> 33.2 µM,> 33.2 µM,,,,,20.5 µM,> 33.2 µM,> 33.2 µM,,0.00613 µM and 0.00332 µM,0.00587 µM and 0.00332 µM,0.0145,0.00477,0.00651 µM and 0.0203 µM,0.00225 µM and 0.00332 µM,3.32,0.00579 µM and 0.00332 µM,0.00385 µM and 0.00332 µM
CC(C)CCCCCCCCCCCCC(=O)NCC(=O)NC1C(O)C(O)C(Nc2ncnc3nc[nH]c23)OC1C(O)CO (stereo unspecified),,0.00787 µM and 0.0537 µM and 0.0327 µM,,,0.0117 µM and 0.0389 µM and 0.0107 µM,0.38 µM,0.0123 µM and 0.0132 µM,,0.00451 µM and 0.0075 µM,0.412 µM and 3.94 µM,< 1e-05,,,< 1e-05,< 1e-05,< 1e-05 µM,0.005 µM,< 0.01,0.005 µM,0.00331 µM and 0.0128 µM
COc1ccc(/C=C2/SC(Nc3nc(-c4nc(NC5=NC(=O)/C(=C\c6ccc(OC)cc6)S5)sc4C)c(C)s3)=NC2=O)cc1,0.77 µM,17.2 µM,9.27 µM,,> 50 µM,7.14 µM,4.22 µM,7.23 µM,> 32.2 µM,> 16.2 µM,0.172,1.14 µM,0.935 µM,,15.2,1.35 µM,0.806 µM,1530,4.27 µM,0.631 µM
COc1ccc([C@@]23Oc4cc(OC)cc(OC)c4[C@]2(O)[C@H](O)[C@H](C(N)=O)[C@H]3c2ccccc2)cc1,0.101 µM and 0.0367 µM,,,,0.0556 µM and 0.0738 µM,0.126 µM and 0.0685 µM,< 0.0215 µM,0.0472 µM and 0.0136 µM,0.0765 µM and 0.0995 µM,> 100 µM,0.0278,,,0.0142,< 0.0147,0.0175 µM,< 0.013 µM,< 11.5,,
